From patent publication US9775831B2, “Combinations comprising biphenyl derivatives for use in the treatment of HCV” (BRISTOL-MYERS SQUIBB COMPANY, priority 2013, dated 2017)

Test system: genotype-1a variant with glutamine 30 changed to glutamate in the NS5A protein
Test: HCV replicon cell-based assay, NS5A synergy with BMS-790052
Settings: genotype 1a Q→E variant; test compound titrated in combination with NS5A-targeting compound (BMS-790052 fixed at 200 nM)
Excerpt: The NS5A synergistic inhibitory effect of test compounds can be determined using various amounts of an NS5A-targeting compound with titration of a second compound of interest. […] In one embodiment, the HCV genotype strain can be genotype 1a containing a change at amino acid 30 of the NS5A protein consisting of glutamine to glutamate. The test compound can be chosen from compounds listed above or from others present in the literature.

`CC(C)[C@H](CC(=O)N(C)CC(C)(C)C)c1ncc(-c2ccc(-c3ccc(-c4cnc([C@@H](CC(=O)N(C)CC(C)(C)C)C(C)C)[nH]4)cc3)cc2)[nH]1` [MD-49] was tested, and the “Fold Synergistic (1a-QE)” value was over 10 Fold.

With `CC1(C)O[C@@H](C(N)=O)[C@H](c2ncc(-c3ccc(-c4ccc(-c5cnc([C@@H]6OC(C)(C)O[C@H]6C(N)=O)[nH]5)cc4)cc3)[nH]2)O1` [Example MD-9] the “Fold Synergistic (1a-QE)” value was under 10 Fold.

In the case of `CC(C)[C@H](CC(=O)N(CCN1CCOC1=O)CC(C)(C)C)c1ncc(-c2ccc(-c3ccc(-c4cnc([C@@H](CC(=O)N(CCN5CCOC5=O)CC(C)(C)C)C(C)C)[nH]4)cc3)cc2)[nH]1` [MD-27], the “Fold Synergistic (1a-QE)” value is reported as over 10 Fold.

`CC(C)[C@H](CC(=O)N1CCN(c2ccccc2)C(=O)C1)c1ncc(-c2ccc(-c3ccc(-c4cnc([C@@H](CC(=O)N5CCN(c6ccccc6)C(=O)C5)C(C)C)[nH]4)cc3)cc2)[nH]1` [MD-29] was tested, and the “Fold Synergistic (1a-QE)” value was under 10 Fold.

`CCN(CC)C(=O)C(c1ncc(-c2ccc(-c3ccc(-c4cnc(C(C(=O)N(CC)CC)C(C)(C)C)[nH]4)cc3)cc2)[nH]1)C(C)(C)C` (stereo not drawn) [Example B3] was tested, and the “Fold Synergistic (1a-QE)” value was over 10 Fold.

In the case of `CC(C)[C@H](CC(=O)NCC(C)(C)C)c1ncc(-c2ccc(-c3ccc(-c4cnc([C@@H](CC(=O)NCC(C)(C)C)C(C)C)[nH]4)cc3)cc2)[nH]1` [Example MD-18], the “Fold Synergistic (1a-QE)” value is reported as over 10 Fold.

For `CC(C)N(C(=O)C[C@@H](CCC(F)(F)F)c1ncc(-c2ccc(-c3ccc(-c4cnc([C@H](CCC(F)(F)F)CC(=O)N(C(C)C)C5CC5)[nH]4)cc3)cc2)[nH]1)C1CC1` [Example MD-56], the “Fold Synergistic (1a-QE)” value was under 10 Fold.

In the case of `CC(C)[C@H](CC(=O)NC1(C#N)CC1)c1ncc(-c2ccc(-c3ccc(-c4cnc([C@@H](CC(=O)NC5(C(N)=O)CC5)C(C)C)[nH]4)cc3)cc2)[nH]1` [MD-33], the “Fold Synergistic (1a-QE)” value is reported as under 10 Fold.

For `CC(C)[C@H](CC(=O)NCC12CC3CC(CC(C3)C1)C2)c1ncc(-c2ccc(-c3ccc(-c4cnc([C@@H](CC(=O)NCC56CC7CC(CC(C7)C5)C6)C(C)C)[nH]4)cc3)cc2)[nH]1` [MD-22], the “Fold Synergistic (1a-QE)” value was over 100 Fold.

With `CC(C)CNC(=O)C[C@H](c1ncc(-c2ccc(-c3ccc(-c4cnc([C@@H](CC(=O)NCC(C)C)C(C)C)[nH]4)cc3)cc2)[nH]1)C(C)C` [MD-35] the “Fold Synergistic (1a-QE)” value was over 10 Fold.

With `CC(C)[C@H](CC(=O)NCC1(O)CCC1)c1ncc(-c2ccc(-c3ccc(-c4cnc([C@@H](CC(=O)NCC5(O)CCC5)C(C)C)[nH]4)cc3)cc2)[nH]1` [MD-54] the “Fold Synergistic (1a-QE)” value was over 10 Fold.

With `CCC(CC)CNC(=O)C[C@H](c1ncc(-c2ccc(-c3ccc(-c4cnc([C@@H](CC(=O)NCC(CC)CC)C(C)C)[nH]4)cc3)cc2)[nH]1)C(C)C` [MD-45] the “Fold Synergistic (1a-QE)” value was over 100 Fold.

`CC(C)NC(=O)C[C@@H](CCC(F)(F)F)c1ncc(-c2ccc(-c3ccc(-c4cnc([C@H](CCC(F)(F)F)CC(=O)N(C(C)C)C5CC5)[nH]4)cc3)cc2)[nH]1` [Example MD-57] was tested, and the “Fold Synergistic (1a-QE)” value was over 10 Fold.

In the case of `CC(C)[C@H](CC(=O)N1CCN(C)C(=O)C1)c1ncc(-c2ccc(-c3ccc(-c4cnc([C@@H](CC(=O)N5CCN(C)C(=O)C5)C(C)C)[nH]4)cc3)cc2)[nH]1` [MD-53], the “Fold Synergistic (1a-QE)” value is reported as under 10 Fold.

For `COC(=O)NN(C(=O)C[C@@H](C)c1nc(-c2ccc(-c3ccc(-c4c[nH]c([C@H](C)CC(=O)N(NC(=O)OC)C(C)C)n4)cc3)cc2)c[nH]1)C(C)C` [MD-12], the “Fold Synergistic (1a-QE)” value was over 10 Fold.

In the case of `CC(C)[C@H](CC(=O)NCC(C)(C)c1ccccc1)c1ncc(-c2ccc(-c3ccc(-c4cnc([C@@H](CC(=O)NCC(C)(C)c5ccccc5)C(C)C)[nH]4)cc3)cc2)[nH]1` [MD-47], the “Fold Synergistic (1a-QE)” value is reported as over 100 Fold.

In the case of `CCOC(=O)N1CCN(C(=O)C[C@@H](CCC(F)(F)F)c2ncc(-c3ccc(-c4ccc(-c5cnc([C@H](CCC(F)(F)F)CC(=O)N6CCN(C(=O)OCC)CC6)[nH]5)cc4)cc3)[nH]2)CC1` [MD-58], the “Fold Synergistic (1a-QE)” value is reported as over 10 Fold.

For `CC(C)[C@H](CC(=O)NC1(C#N)CC1)c1ncc(-c2ccc(-c3ccc(-c4cnc([C@@H](CC(=O)NC5(C#N)CC5)C(C)C)[nH]4)cc3)cc2)[nH]1` [MD-31], the “Fold Synergistic (1a-QE)” value was under 10 Fold.

With `CC(C)[C@H](CC(=O)N(C)CC(=O)NC(C)(C)C)c1ncc(-c2ccc(-c3ccc(-c4cnc([C@@H](CC(=O)N(C)CC(=O)NC(C)(C)C)C(C)C)[nH]4)cc3)cc2)[nH]1` [MD-25] the “Fold Synergistic (1a-QE)” value was over 10 Fold.

`COC(=O)[C@@H](NC(=O)C[C@@H](CCC(F)(F)F)c1ncc(-c2ccc(-c3ccc(-c4cnc([C@H](CCC(F)(F)F)CC(=O)N[C@H](C(=O)OC)C(C)C)[nH]4)cc3)cc2)[nH]1)C(C)C` [Example MD-1] was tested, and the “Fold Synergistic (1a-QE)” value was over 10 Fold.

`CC(C)(C)C(C(=O)Nc1cccc(Cl)c1)c1ncc(-c2ccc(-c3ccc(-c4cnc(C(C(=O)Nc5cccc(Cl)c5)C(C)(C)C)[nH]4)cc3)cc2)[nH]1` (stereo not drawn) [Example B2] was tested, and the “Fold Synergistic (1a-QE)” value was under 10 Fold.

For `CCO[C@H](CC(=O)N(NC(=O)OC)C(C)C)c1ncc(-c2ccc(-c3ccc(-c4cnc([C@@H](CC(=O)N(NC(=O)OC)C(C)C)OCC)[nH]4)cc3)cc2)[nH]1` [Example MD-5], the “Fold Synergistic (1a-QE)” value was over 10 Fold.

With `CC(C)[C@H](CC(=O)NCC1(c2ccc(F)cc2)CCCC1)c1ncc(-c2ccc(-c3ccc(-c4cnc([C@@H](CC(=O)NCC5(c6ccc(F)cc6)CCCC5)C(C)C)[nH]4)cc3)cc2)[nH]1` [MD-32] the “Fold Synergistic (1a-QE)” value was over 100 Fold.

In the case of `O=C(C[C@@H](CCC(F)(F)F)c1ncc(-c2ccc(-c3ccc(-c4cnc([C@H](CCC(F)(F)F)CC(=O)NC5CCOCC5)[nH]4)cc3)cc2)[nH]1)NC1CCOCC1` [MD-61], the “Fold Synergistic (1a-QE)” value is reported as under 10 Fold.

`CC(C)(C)C(C(=O)NC1CCCCC1)c1ncc(-c2ccc(-c3ccc(-c4cnc(C(C(=O)NC5CCCCC5)C(C)(C)C)[nH]4)cc3)cc2)[nH]1` (stereo not drawn) [Example B5] was tested, and the “Fold Synergistic (1a-QE)” value was under 10 Fold.

For `C[C@H](CC(=O)N1CCOCC1)c1ncc(-c2ccc(-c3ccc(-c4cnc([C@H](C)CC(=O)N5CCOCC5)[nH]4)cc3)cc2)[nH]1` [MD-37], the “Fold Synergistic (1a-QE)” value was over 10 Fold.

`CC(C)CNC(=O)[C@@H]1OC(C)(C)O[C@H]1c1ncc(-c2ccc(-c3ccc(-c4cnc([C@@H]5OC(C)(C)O[C@H]5C(=O)NCC(C)C)[nH]4)cc3)cc2)[nH]1` [Example MD-7] was tested, and the “Fold Synergistic (1a-QE)” value was under 10 Fold.

In the case of `CC(C)[C@H](CC(=O)N(Cc1ccccc1)C(C)C)c1ncc(-c2ccc(-c3ccc(-c4cnc([C@@H](CC(=O)N(Cc5ccccc5)C(C)C)C(C)C)[nH]4)cc3)cc2)[nH]1` [MD-52], the “Fold Synergistic (1a-QE)” value is reported as over 100 Fold.

For `CCOC(=O)[C@@H]1OCO[C@H]1c1ncc(-c2ccc(-c3ccc(-c4cnc([C@@H]5OCO[C@H]5C(=O)OCC)[nH]4)cc3)cc2)[nH]1` [Example MD-15], the “Fold Synergistic (1a-QE)” value was under 10 Fold.

In the case of `CC(C)[C@H](CC(=O)N(C)CC(=O)N(C)C)c1ncc(-c2ccc(-c3ccc(-c4cnc([C@@H](CC(=O)N(C)CC(=O)N(C)C)C(C)C)[nH]4)cc3)cc2)[nH]1` [MD-30], the “Fold Synergistic (1a-QE)” value is reported as under 10 Fold.

For `CC(C)[C@H](CC(=O)NCC(C)(C)C(N)=O)c1ncc(-c2ccc(-c3ccc(-c4cnc([C@@H](CC(=O)NCC(C)(C)C(N)=O)C(C)C)[nH]4)cc3)cc2)[nH]1` [MD-51], the “Fold Synergistic (1a-QE)” value was over 10 Fold.

For `CC(C)(C)CNC(=O)C[C@@H](CCC(F)(F)F)c1ncc(-c2ccc(-c3ccc(-c4cnc([C@H](CCC(F)(F)F)CC(=O)NCC(C)(C)C)[nH]4)cc3)cc2)[nH]1` [Example MD-55], the “Fold Synergistic (1a-QE)” value was under 10 Fold.

`CCOCC1(CNC(=O)C[C@H](c2ncc(-c3ccc(-c4ccc(-c5cnc([C@@H](CC(=O)NCC6(COCC)CC6)C(C)C)[nH]5)cc4)cc3)[nH]2)C(C)C)CC1` [Example MD-20] was tested, and the “Fold Synergistic (1a-QE)” value was over 10 Fold.
